Results reported in patent US7964624B1, “Inhibitors of serine proteases” (priority 2005, dated 2011).

Target: T1, full-length hepatitis C viral protein NS3•4A (Hepatitis C virus genotype 1a, UniProt P27958)
T1 construct: hexa-histidine (N); made in house; host or cells: Sf9 insect cells (baculovirus, pVL1392)
Assay: biochemical
Set-up: species or system HCV sub-type strain 1a
Conditions: Enzyme Assay 2 (HCV NS3 Peptide Cleavage Assay) activity, apparent Ki class

Row | Structure (SMILES) | Ki
1 | CCC[C@H](NC(=O)[C@@H]1C[C@]2(CC(c3cc(C)c(OC)c(Cl)c3)=NO2)CN1C(=O)[C@@H](NC(=O)OC(C)(C)C)C(C)(C)C)C(=O)C(=O)NC [Compound 646] | < 100 nM
2 | CC(C)(C)[C@H](NC(=O)CC1CCCCC1)C(=O)N1C[C@@]2(CC(c3cccc(Cl)c3)=NO2)C[C@H]1C(=O)N[C@@H](CC1CC1)C(=O)C(=O)NC1CC1 [Compound 50] | < 100 nM
3 | CCC[C@H](NC(=O)[C@@H]1C[C@]2(CC(c3ccc(F)c(Cl)c3)=NO2)CN1C(=O)[C@@H](NC(=O)OC1CCCC1)C(C)(C)C)C(=O)C(=O)NC [Compound 653] | 100 to 500 nM
4 | CC(C)(C)[C@H](NC(=O)CC1CCCCCC1)C(=O)N1C[C@@]2(CC(c3cccc4cccnc34)=NO2)C[C@H]1C(=O)N[C@@H](CC1CC1)C(=O)C(N)=O [Compound 602] | < 100 nM
5 | CNC(=O)C(=O)[C@H](CC1CC1)NC(=O)[C@@H]1C[C@]2(CC(c3cc(Cl)cc4c3OCOC4)=NO2)CN1C(=O)[C@@H](NC(=O)CC1CCCCC1)C(C)(C)C [Compound 677] | < 100 nM
6 | CNC(=O)C(=O)[C@H](CC1CC1)NC(=O)[C@@H]1C[C@]2(CC(c3cc(Cl)c4c(c3)OCCO4)=NO2)CN1C(=O)[C@@H](NC(=O)CC1CCCCC1)C(C)(C)C [Compound 675] | < 100 nM
7 | CCC[C@H](NC(=O)[C@@H]1C[C@]2(CC(c3ccc(N(C)C)c(Cl)c3)=NO2)CN1C(=O)[C@@H](NC(=O)CC1CCCCC1)C(C)(C)C)C(=O)C(=O)NC1CC1 [Compound 597] | 100 to 500 nM
8 | CNC(=O)C(=O)[C@H](CC1CC1)NC(=O)C1C[C@]2(CC(c3cccc(Cl)c3)=NO2)CN1C(=O)[C@@H](NC(=O)C1CCC1)C(C)(C)C (stereo partly shown) [Compound 749] | < 100 nM
9 | CCC[C@H](NC(=O)[C@@H]1C[C@]2(CC(c3cc(Cl)ccc3OC)=NO2)CN1C(=O)[C@@H](NC(=O)CC1CCCCC1)C(C)(C)C)C(=O)C(N)=O [Compound 636] | < 100 nM
10 | CNC(=O)C(=O)[C@H](CC1CC1)NC(=O)[C@@H]1C[C@]2(CC(c3cc(Cl)c(OC)cc3OC)=NO2)CN1C(=O)[C@@H](NC(=O)CC1CCCCC1)C(C)(C)C [Compound 657] | < 100 nM
11 | COc1c(C)cc(C2=NO[C@]3(C2)C[C@@H](C(=O)N[C@@H](CC2CC2)C(=O)C(N)=O)N(C(=O)[C@@H](NC(=O)CC2CCCCC2)C(C)(C)C)C3)cc1Cl [Compound 195] | < 100 nM
12 | COc1cc(OC)c(C2=NO[C@]3(C2)C[C@@H](C(=O)N[C@@H](CC2CC2)C(=O)C(N)=O)N(C(=O)[C@@H](NC(=O)CC(C)(C)C)C(C)(C)C)C3)cc1Cl [Compound 104] | < 100 nM
13 | CC(C)(C)[C@H](NC(=O)[C@H]1C[C@@H]1c1ccccc1)C(=O)N1C[C@@]2(CC(c3cccc(Cl)c3)=NO2)C[C@H]1C(=O)N[C@@H](CC1CC1)C(=O)C(N)=O [Compound 699] | < 100 nM
14 | CNC(=O)C(=O)[C@H](CC1CC1)NC(=O)[C@@H]1C[C@]2(CC(c3cc(Cl)cc4c3OCO4)=NO2)CN1C(=O)[C@@H](NC(=O)OC(C)(C)C)C(C)(C)C [Compound 691] | 100 to 500 nM
15 | CCC[C@H](NC(=O)[C@@H]1C[C@]2(CC(c3cccc(NC(=O)C(Cl)Cl)c3)=NO2)CN1C(=O)[C@@H](NC(=O)CC1CCCCC1)C(C)(C)C)C(=O)C(=O)NC1CC1 [Compound 598] | 100 to 500 nM
16 | CC1(CC(=O)N[C@H](C(=O)N2C[C@@]3(CC(c4cccc(Cl)c4)=NO3)C[C@H]2C(=O)N[C@@H](CC2CC2)C(=O)C(N)=O)C(C)(C)C)CCOCC1 [Compound 184] | < 100 nM
17 | CCC[C@H](NC(=O)[C@@H]1C[C@]2(CC(c3cc(Cl)c4c(c3)CCCN4C)=NO2)CN1C(=O)[C@@H](NC(=O)OC(C)(C)C)C(C)(C)C)C(=O)C(=O)NC1CC1 [Compound 601] | < 100 nM
18 | CCC[C@H](NC(=O)[C@@H]1C[C@]2(CC(c3ccc(OCC)c(Cl)c3)=NO2)CN1C(=O)[C@@H](NC(=O)CC1CCCCC1)C(C)(C)C)C(=O)C(=O)NC1CC1 [Compound 556] | < 100 nM
19 | CCC[C@H](NC(=O)[C@@H]1C[C@]2(CC(c3cc(Cl)ccc3OC)=NO2)CN1C(=O)[C@@H](NC(=O)CC1CCCCCC1)C(C)(C)C)C(=O)C(=O)NC [Compound 634] | < 100 nM
20 | CCC[C@H](NC(=O)[C@@H]1C[C@]2(CC(c3cc(C)c(OC)c(Cl)c3)=NO2)CN1C(=O)[C@@H](NC(=O)CC1CCCCC1)C(C)(C)C)C(=O)C(=O)NC [Compound 641] | < 100 nM
21 | COc1c(C)cc(C2=NO[C@]3(C2)C[C@@H](C(=O)NC(CC2CC2)C(=O)C(N)=O)N(C(=O)[C@@H](NC(=O)OC2CCCC2)C(C)(C)C)C3)cc1C (stereo partly shown) [Compound 769] | 100 to 500 nM
22 | CNC(=O)C(=O)[C@H](CC1CC1)NC(=O)[C@@H]1C[C@]2(CC(c3cc(C)c(OC)c(C)c3)=NO2)CN1C(=O)[C@@H](NC(=O)CC1CCCCC1)C(C)(C)OC [Compound 788] | < 100 nM
23 | CCC[C@H](NC(=O)[C@@H]1C[C@]2(CC(c3cc(Cl)c(OC)cc3OC)=NO2)CN1C(=O)[C@@H](NC(=O)CC1(C)CCOCC1)C(C)(C)C)C(=O)C(=O)N1CCC1 [Compound 356] | < 100 nM
24 | CCC[C@H](NC(=O)[C@@H]1C[C@]2(CC(c3cc(Cl)c(OC)cc3OC)=NO2)CN1C(=O)[C@@H](NC(=O)CC1CCCCC1)C(C)(C)C)C(=O)C(N)=O [Compound 618] | < 100 nM
25 | CCC[C@H](NC(=O)[C@@H]1C[C@]2(CC(c3cccc(Cl)c3)=NO2)CN1C(=O)[C@@H](NC(=O)CC(C)(C)OC)C(C)(C)C)C(=O)C(=O)NC1CC1 [Compound 772] | < 100 nM
26 | CCC[C@H](NC(=O)[C@@H]1C[C@]2(CC(c3cccc(Cl)c3)=NO2)CN1C(=O)[C@@H](NC(=O)OC1CCCCCC1)C(C)(C)C)C(=O)C(=O)NC1CC1 [Compound 706] | < 100 nM
27 | CCC[C@H](NC(=O)[C@@H]1C[C@]2(CC(c3cc(Cl)ccc3OC)=NO2)CN1C(=O)[C@@H](NC(=O)OC1CCCC1)C(C)(C)C)C(=O)C(=O)NC1CC1 [Compound 686] | < 100 nM
28 | CCC[C@H](NC(=O)[C@@H]1C[C@]2(CC(c3cc(Cl)c(OC)cc3C)=NO2)CN1C(=O)[C@@H](NC(=O)CC1CCCCCC1)C(C)(C)C)C(=O)C(N)=O [Compound 622] | 100 to 500 nM

Same assay, conditions: Enzyme Assay 2, HCV NS3 Peptide Cleavage Assay, apparent Ki

Row | Structure (SMILES) | Ki
29 | CCOc1cc(OC)c(C2=NO[C@]3(C2)C[C@@H](C(=O)N[C@@H](CC2CC2)C(=O)C(=O)NC)N(C(=O)[C@@H](NC(=O)OC(C)(C)C)C(C)(C)C)C3)cc1Cl [Compound 942] | < 100 nM
30 | CCC[C@H](NC(=O)[C@@H]1C[C@]2(CC(c3cc(Cl)c(C)cc3OC)=NO2)CN1C(=O)[C@@H](NC(=O)CC1CCCCC1)C(C)(C)C)C(=O)C(=O)NC1CC1 [Compound 820] | < 100 nM
31 | CCC[C@H](NC(=O)[C@@H]1C[C@]2(CC(c3cccc(Cl)c3)=NO2)CN1C(=O)[C@@H](NC(=O)[C@@H]1C[C@H]1c1c[nH]cn1)C(C)(C)C)C(=O)C(=O)NC1CC1 [Compound 918] | 100 to 500 nM
32 | CCC[C@H](NC(=O)[C@@H]1C[C@]2(CC(c3cc(C)c(OCC)c(C)c3)=NO2)CN1C(=O)[C@@H](NC(=O)[C@H]1C[C@@H]1c1ccccn1)C(C)(C)C)C(=O)C(=O)NC1CC1 [Compound 980] | 100 to 500 nM
33 | CCC[C@H](NC(=O)[C@@H]1C[C@]2(CC(c3cc(C)c(OCC)c(C)c3)=NO2)CN1C(=O)[C@@H](NC(=O)[C@@H]1C[C@H]1C(C)C)C(C)(C)C)C(=O)C(=O)NC1CC1 [Compound 983] | < 100 nM
34 | CNC(=O)C(=O)[C@H](CC1CC1)NC(=O)[C@@H]1C[C@]2(CC(N3Cc4ccccc4C3)=NO2)CN1C(=O)[C@@H](NC(=O)OC1CCCC1)C(C)(C)C [Compound 965] | 100 to 500 nM
35 | CNC(=O)C(=O)[C@H](CC1CC1)NC(=O)[C@@H]1C[C@]2(CC(c3cccc(Cl)c3)=NO2)CN1C(=O)[C@@H](NC(=O)[C@@H]1CC12CCOCC2)C(C)(C)C [Compound 927] | < 100 nM
36 | CCC[C@H](NC(=O)[C@@H]1C[C@]2(CC(c3cc(Cl)ccc3OC)=NO2)CN1C(=O)[C@@H](NC(=O)[C@@H]1C[C@H]1c1ccccc1)C(C)(C)C)C(=O)C(=O)NC [Compound 969] | < 100 nM
37 | CCC[C@H](NC(=O)[C@@H]1C[C@]2(CC(N3Cc4ccccc4C3)=NO2)CN1C(=O)[C@@H](NC(=O)OC1CCCC1)C(C)(C)C)C(=O)C(=O)NC1CC1 [Compound 964] | 100 to 500 nM
38 | CCOc1c(C)cc(C2=NO[C@]3(C2)C[C@@H](C(=O)N[C@@H](CC2CC2)C(=O)C(=O)NC)N(C(=O)[C@@H](NC(=O)[C@@H]2C[C@H]2c2ccccc2OC)C(C)(C)C)C3)cc1C [Compound 985] | < 100 nM
39 | CNC(=O)C(=O)[C@H](CC1CC1)NC(=O)[C@@H]1C[C@]2(CC(c3cccc4cccnc34)=NO2)CN1C(=O)[C@@H](NC(=O)[C@H]1C[C@@H]1c1ccccc1)C(C)(C)C [Compound 807] | 100 to 500 nM
40 | CNC(=O)C(=O)[C@H](CC1CC1)NC(=O)[C@@H]1C[C@]2(CC(c3cccc(Cl)c3)=NO2)CN1C(=O)[C@@H](NC(=O)C1(c2ccccc2)CC1)C(C)(C)C [Compound 966] | > 500 nM
41 | CNC(=O)C(=O)[C@H](CC1CC1)NC(=O)[C@@H]1C[C@]2(CC(c3cccc(Cl)c3)=NO2)CN1C(=O)[C@@H](NC(=O)[C@@H]1C[C@H]1c1ccccc1OC)C(C)(C)C [Compound 867] | < 100 nM
42 | CCOc1cc(OC)c(C2=NO[C@]3(C2)C[C@@H](C(=O)N[C@@H](CC2CC2)C(=O)C(=O)NC)N(C(=O)[C@@H](NC(=O)OC2CCCC2)C(C)(C)C)C3)cc1Cl [Compound 947] | < 100 nM
43 | CNC(=O)C(=O)[C@H](CC1CC1)NC(=O)[C@@H]1C[C@]2(CC(c3cccc(Cl)c3)=NO2)CN1C(=O)[C@@H](NC(=O)[C@@H]1C[C@H]1c1c[nH]cn1)C(C)(C)C [Compound 832] | 100 to 500 nM
44 | CCOc1c(C)cc(C2=NO[C@]3(C2)C[C@@H](C(=O)N[C@@H](CC2CC2)C(=O)C(N)=O)N(C(=O)[C@@H](NC(=O)OC(C)(C)C)C(C)(C)C)C3)cc1C [Compound 974] | < 100 nM
45 | CCC[C@H](NC(=O)[C@@H]1C[C@]2(CC(c3cc(C)c(OCC)c(C)c3)=NO2)CN1C(=O)[C@@H](NC(=O)[C@@H]1C[C@H]1c1ccccc1OC)C(C)(C)C)C(=O)C(=O)NC [Compound 991] | < 100 nM
46 | CCC[C@H](NC(=O)[C@@H]1C[C@]2(CC(c3cccc(Cl)c3)=NO2)CN1C(=O)[C@@H](NC(=O)[C@@H]1C[C@H]1C(C)C)C(C)(C)C)C(=O)C(=O)NC1CC1 [Compound 897] | < 100 nM
